ChEMBL document CHEMBL1201862, “PubChem BioAssay data set” (2004)
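Dose response: 5 concentrations. Exposure: 48 h. Format: 96-well plates. Endpoint: linear interpolation; highest concentration if not reached. GI50 = concentration required for 50% inhibition of growth.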 Active and inactive are the calls of the source. Rule as the data show it: active = GI50 up to about 1.1 µM and inactive = higher.

What was measured:
Assay in all cases: DTP human tumour cell line panel, 48 h
SK-MEL-28 = tested on: SK-MEL-28
HOP-92 = tested on: HOP-92
NCI-H522 = tested on: NCI-H522
HT-29 = tested on: HT-29
CCRF-CEM = tested on: CCRF-CEM
UO-31 = tested on: UO-31
OVCAR-4 = tested on: OVCAR-4
IGROV-1 = tested on: IGROV-1
SN12C = tested on: SN12C
OVCAR-8 = tested on: OVCAR-8
MOLT-4 = tested on: MOLT-4
HCC 2998 = tested on: HCC 2998
SF-295 = tested on: SF-295
LOX IMVI = tested on: LOX IMVI
EKVX = tested on: EKVX
SNB-75 = tested on: SNB-75
HOP-62 = tested on: HOP-62
ACHN = tested on: ACHN
TK-10 = tested on: TK-10

Measured: GI50

Nc1ccc2cc(S(=O)(=O)O)cc(O)c2c1/N=N/c1ccc(NC(=O)Nc2ccc(/N=N/c3c(N)ccc4cc(S(=O)(=O)O)cc(O)c34)c(S(=O)(=O)O)c2)cc1S(=O)(=O)O
inactive: SK-MEL-28 > 100 µM | HOP-92 > 54.8 µM | NCI-H522 > 100 µM | HT-29 > 100 µM | CCRF-CEM > 69.3 µM | UO-31 > 100 µM | OVCAR-4 > 84.1 µM | IGROV-1 > 100 µM | SN12C > 100 µM | OVCAR-8 > 100 µM | MOLT-4 > 100 µM | HCC 2998 > 100 µM | SF-295 > 100 µM | LOX IMVI > 100 µM | EKVX > 100 µM | SNB-75 95.9 µM | HOP-62 > 100 µM

COc1ccc2c(c1)[n+]([O-])c(C(C)=O)c(C)[n+]2[O-]
inactive: SK-MEL-28 > 100 µM | HOP-92 > 100 µM | NCI-H522 > 100 µM | HT-29 > 100 µM | CCRF-CEM > 10 µM | UO-31 > 100 µM | OVCAR-4 > 100 µM | ACHN > 100 µM | IGROV-1 > 100 µM | SN12C > 100 µM | OVCAR-8 > 100 µM | MOLT-4 > 100 µM | HCC 2998 > 100 µM | SF-295 > 100 µM | TK-10 > 100 µM | LOX IMVI > 100 µM | EKVX > 100 µM | HOP-62 > 100 µM

NN=C(S)Nc1cccc(Cl)c1
inactive: SK-MEL-28 > 100 µM | NCI-H522 95.9 µM | HT-29 37.4 µM | CCRF-CEM 25.8 µM | UO-31 > 100 µM | OVCAR-4 39.9 µM | ACHN > 100 µM | IGROV-1 > 100 µM | SN12C 94.4 µM | OVCAR-8 81.5 µM | MOLT-4 35.4 µM | HCC 2998 64.7 µM | SF-295 69.2 µM | TK-10 > 100 µM | LOX IMVI > 100 µM | EKVX > 100 µM | SNB-75 > 100 µM | HOP-62 > 100 µM

N/C(=N\O)N/N=C/c1cc2c(cc1Cl)OCO2
inactive: SK-MEL-28 64.4 µM | HOP-92 28.3 µM | NCI-H522 16 µM | HT-29 46.1 µM | CCRF-CEM 27 µM | UO-31 21.4 µM | OVCAR-4 52 µM | IGROV-1 43 µM | SN12C 59 µM | OVCAR-8 40.6 µM | MOLT-4 39 µM | HCC 2998 26 µM | SF-295 22.9 µM | LOX IMVI 31.5 µM | EKVX 60.4 µM | SNB-75 30.1 µM | HOP-62 36.3 µM

Cc1ccccc1NC(=O)CSc1nnc(Cc2ccccc2)o1
inactive: SK-MEL-28 > 100 µM | NCI-H522 > 100 µM | HT-29 > 100 µM | CCRF-CEM > 100 µM | UO-31 > 100 µM | OVCAR-4 > 100 µM | ACHN > 100 µM | IGROV-1 > 100 µM | SN12C > 100 µM | OVCAR-8 > 100 µM | MOLT-4 > 100 µM | HCC 2998 > 100 µM | SF-295 > 100 µM | TK-10 > 100 µM | LOX IMVI > 100 µM | SNB-75 > 100 µM | HOP-62 > 100 µM

CCCCCCC1NN(C(C)=O)C(CCCCCC)NN1C(C)=O (stereo unspecified)
inactive: HOP-92 > 100 µM | NCI-H522 > 100 µM | HT-29 > 100 µM | CCRF-CEM 42.2 µM | UO-31 > 100 µM | OVCAR-4 > 100 µM | ACHN > 100 µM | IGROV-1 > 100 µM | SN12C > 100 µM | OVCAR-8 > 100 µM | MOLT-4 > 100 µM | HCC 2998 > 100 µM | SF-295 > 100 µM | TK-10 > 100 µM | LOX IMVI 19.9 µM | EKVX > 100 µM | SNB-75 > 100 µM | HOP-62 > 100 µM

Clc1ccc(OC2CCO2)cc1Cl (stereo unspecified)
inactive: SK-MEL-28 > 100 µM | HOP-92 46.3 µM | NCI-H522 34.3 µM | HT-29 85.5 µM | CCRF-CEM 48.3 µM | UO-31 62.4 µM | OVCAR-4 60 µM | ACHN 49.7 µM | IGROV-1 > 100 µM | SN12C 88.5 µM | OVCAR-8 96.2 µM | MOLT-4 35.3 µM | HCC 2998 > 100 µM | SF-295 > 100 µM | TK-10 87.7 µM | EKVX > 100 µM | SNB-75 > 100 µM | HOP-62 78.9 µM

COc1ccc2c(c1)OC[C@@H]1c3cc(O)c(OCc4ccccc4)cc3O[C@H]21
inactive: SK-MEL-28 32.9 µM | HOP-92 14.8 µM | NCI-H522 13.5 µM | HT-29 34.2 µM | CCRF-CEM 34.3 µM | UO-31 20.1 µM | OVCAR-4 16.6 µM | ACHN 22.9 µM | IGROV-1 26.5 µM | OVCAR-8 29.5 µM | MOLT-4 29.5 µM | HCC 2998 36.2 µM | SF-295 28.8 µM | TK-10 32.7 µM | LOX IMVI 30 µM | EKVX 19.4 µM | SNB-75 14.2 µM | HOP-62 48 µM
